Assay results from patent publication EP1484329A1, “Indole derivatives with apoptosis inducing activity” (Zentaris GmbH, priority 2003, dated 2004).
In brackets after ≈: the same amount, converted by molar mass. Where a name gives a salt, the structure may show the parent alone. Read-outs that look alike come from different tables or passages of the source.

What was measured:
SF-268 = experiment: XTT proliferation assay, SF-268; type: cell-based; details: Homo sapiens, read-out: XTT Proliferationsassay, EC50 SF-268
From the text: (§1) Die Substanzen 1,2, 4-6 wurden in einem Proliferationstest an etablierten Tumorzelllinien auf ihre anti-proliferative Aktivität hin untersucht (D.A. Scuderio et al. Cancer Res. 1988, 48, 4827-4833). Der verwendete Test bestimmt die zelluläre Dehydrogenase-Aktivität und ermöglicht eine Bestimmung der Zellvitalität und indirekt der Zellzahl. Bei den verwendeten Zelllinien handelt es sich um die humane Cervixkarzinom Zelllinie KB/HeLa (ATCC CCL17), die ovariale Adenokarzinomzelllinie SKOV-3 (ATCC HTB77), die humane Glioblastom Zelllinie SF-268 (NCI 503138) und die Lungenkarzinom Zelllinie NCI-H460 (NCI 503473). Des weiteren wurde zur Untersuchung der Zellzyklus-spezifischen Wirkung der Substanz ein RKOp27 Zellsystem verwendet (M. Schmidt et al. Oncogene19(20):2423-9, 2000). Bei RKO handelt es sich um eine humane Kolonkarzinomlinie, in der der Zellzyklusinhibitor p27 ^kip1 mittels des Ecdyson Expressionssystems induziert zur Expression gebracht und zu einem Zellzyklusarrest spezifisch in G2 geführt werden kann. Eine unspezifisch wirkende Substanz hemmt die Proliferation unabhängig davon, ob die RKO Zelle in G1 oder G2 arretiert ist oder nicht. Zellzyklus-spezifische Substanzen wie beispielsweise Tubulininhibitoren sind hingegen nur dann zytotoxisch, wenn Zellen nicht arretiert sind und der Zellzyklus durchlaufen wird. In Tabelle 1 ist die zytotoxische bzw. wachstumshemmende Aktivität der beschriebenen Verbindungen mit / ohne Expression von p27^kip1gezeigt. Die getesteten Verbindungen zeigten im induzierten Zustand von p27^kiP1 keine zytotoxische Aktivität. Die Ergebnisse zeigen eine sehr potente Hemmung der Proliferation ausgewählter Tumorzelllinien durch die genannten Substanzen.

A549 = experiment: XTT proliferation assay, A549; type: cell-based, human; details: for EC50: Homo sapiens, A549, A549, read-out: XTT Proliferationsassay, EC50 A549
From the text: as §1, with “Substanzen. Tabelle 1:” for “Substanzen.”
(§2) Zur weiteren Charakterisierung wurden die Substanzen 1-6 an einem Panel von 7 humanen Tumorzelllinien auf ihre anti-proliferative Wirkung hin untersucht. Bei den untersuchten Zelllinien handelt es sich um die humanen Glioma Zelllinien A172 (ATCC CRL-1620) und U118 (ATCC HTB-15), die humane Lungenkarzinom Zelllinie A549, das humane epidermoide Karzinom A431 (ATCC CRL-2592), die humanen Prostatakarzinom Zelllinien DU145 (ATCC HTB-81) und PC3 (ATCC CRL-1435) und die humane Kolon Adenokarzinomzelllinie HT29 (ATCC HTB-38). Es handelt sich hierbei um sehr gut charakterisierte, etablierte Zelllinien, die von ATCC, ECACC bzw. NCI erhalten und in Kultur genommen wurden. Die in Tab. […]

L1210VCR = experiment: XTT proliferation assay, L1210VCR (resistant); type: cell-based, murine; details: Mus musculus; read-out: XTT Proliferationsassay, EC50 L1210VCR
From the text: as §1, with “Substanzen. Tabelle 1:” for “Substanzen.”
(§3) Zur weiteren Charakterisierung wurden die Substanzen 1,2,4-6 gegenüber multi drug resistenten Zelllinien im Vergleich zu den nicht-resistenten Wildtypzelllinien untersucht.
(§4) Bei den untersuchten Zelllinien handelt es sich um die murine L1210, die akute myeloische Leukaemie Zelllinie LT12 und um die resistenten Linien L1210/mdr und LT12/mdr. Außerdem wurden die murine P388 Zelllinie (methyl-cholanthreneinduced lymphoid neoplasm) sowie die Doxorubicin-resistente P388 als Testsysteme herangezogen.

DU145 = experiment: XTT proliferation assay, DU145; type: cell-based, human; details: for EC50: Homo sapiens, DU-145, DU145, read-out: XTT Proliferationsassay, EC50 DU145
From the text: as §1, with “Substanzen. Tabelle 1:” for “Substanzen.”
as §2

NCI-H460 = experiment: XTT proliferation assay, NCI-H460; type: cell-based; details: Homo sapiens, read-out: XTT Proliferationsassay, EC50 NCI-H460
From the text: as §1

P388 = experiment: XTT proliferation assay, P388 (wild type); type: cell-based, murine; details: Mus musculus, P388; read-out: XTT Proliferationsassay, EC50 P388
From the text: as §1, with “Substanzen. Tabelle 1:” for “Substanzen.”
as §3, §4

LT12mdr = experiment: XTT proliferation assay, LT12mdr (resistant); type: cell-based; details: read-out: XTT Proliferationsassay, EC50 LT12mdr
From the text: as §1, with “Substanzen. Tabelle 1:” for “Substanzen.”
as §3, §4

A431 = experiment: XTT proliferation assay, A431; type: cell-based, human; details: for EC50: Homo sapiens, A-431, A431, read-out: XTT Proliferationsassay, EC50 A431
From the text: as §1, with “Substanzen. Tabelle 1:” for “Substanzen.”
as §2

Rindertubulin = experiment: Inhibition of tubulin polymerisation in vitro; type: biochemical, Rind; details: Tubulin with 30% MAPs, mean of two independent experiments
From the text: In diesem Test wird durch Zyklen von Polymerisation und Depolymerisation aufgereinigtes Tubulin eingesetzt, welches durch Zugabe von GTP und Erwärmung zur Polymerisation gebracht wird. […]

RKOp27 = experiment: XTT proliferation assay, RKOp27 cell system with / without induced p27kip1 expression; type: cell-based; details: Homo sapiens
From the text: as §1

PC3 = experiment: XTT proliferation assay, PC3; type: cell-based, human; details: for EC50: Homo sapiens, PC-3, PC3, read-out: XTT Proliferationsassay, EC50 PC3
From the text: as §1, with “Substanzen. Tabelle 1:” for “Substanzen.”
as §2

LT12 = experiment: XTT proliferation assay, LT12 (wild type); type: cell-based; details: Rattus norvegicus, LT12; read-out: XTT Proliferationsassay, EC50 LT12
From the text: as §1, with “Substanzen. Tabelle 1:” for “Substanzen.”
as §3, §4

HT29 = experiment: XTT proliferation assay, HT29; type: cell-based, human; details: for EC50: Homo sapiens, HT-29, HT29, read-out: XTT Proliferationsassay, EC50 HT29
From the text: as §1, with “Substanzen. Tabelle 1:” for “Substanzen.”
as §2

A172 = experiment: XTT proliferation assay, A172; type: cell-based, human; details: for EC50: Homo sapiens, A 172, A172, read-out: XTT Proliferationsassay, EC50 A172
From the text: as §1, with “Substanzen. Tabelle 1:” for “Substanzen.”
as §2

KB/HeLa = experiment: XTT proliferation assay, KB/HeLa; type: cell-based; details: Homo sapiens, read-out: XTT Proliferationsassay, EC50 KB/Hela
From the text: as §1

L1210 = experiment: XTT proliferation assay, L1210 (wild type); type: cell-based, murine; details: Mus musculus, L1210; read-out: XTT Proliferationsassay, EC50 L1210
From the text: as §1, with “Substanzen. Tabelle 1:” for “Substanzen.”
as §3, §4

SKOV-3 = experiment: XTT proliferation assay, SKOV-3; type: cell-based; details: Homo sapiens, SK-OV-3; read-out: XTT Proliferationsassay, EC50 SKOV3
From the text: as §1

P388ADR = experiment: XTT proliferation assay, P388ADR (doxorubicin-resistant); type: cell-based, murine; details: Mus musculus, P388/ADR; read-out: XTT Proliferationsassay, EC50 P388ADR
From the text: as §1, with “Substanzen. Tabelle 1:” for “Substanzen.”
as §3, §4

U118MG = experiment: XTT proliferation assay, U118MG; type: cell-based; details: Homo sapiens, U-118-MG; read-out: XTT Proliferationsassay, EC50 U118MG
From the text: as §1, with “Substanzen. Tabelle 1:” for “Substanzen.”
as §2

[1] = RKOP27, without expression of p27kip1, read-out: XTT Proliferationsassay, EC50 RKOP27
[2] = RKOP27 ind., p27kip1 expression induced (cells arrested), read-out: XTT Proliferationsassay, EC50 RKOP27 ind.

Compound | EC50 (SF-268) [µg/mL] | EC50 (A549) [µg/mL] | EC50 (L1210VCR) [µg/mL] | EC50 (DU145) [µg/mL] | EC50 (NCI-H460) [µg/mL] | EC50 (P388) [µg/mL] | EC50 (LT12mdr) [µg/mL] | EC50 (A431) [µg/mL] | EC50 (RKOp27; [1]) [µg/mL] | EC50 (RKOp27; [2]) [µg/mL] | EC50 (PC3) [µg/mL] | EC50 (LT12) [µg/mL] | EC50 (HT29) [µg/mL] | EC50 (A172) [µg/mL] | EC50 (KB/HeLa) [µg/mL] | EC50 (L1210) [µg/mL] | EC50 (SKOV-3) [µg/mL] | EC50 (P388ADR) [µg/mL] | EC50 (U118MG) [µg/mL] | Hemmung der Tubulin-Polymerisation, EC50 (Rindertubulin) [µg/mL] | also measured
Cc1ccc2cc(NC(=O)C(=O)c3cn(Cc4ccc(Cl)cc4)c4ccccc34)ccc2n1 [Verbindung 1, 2-[1-(4-Chlor-benzyl)-1 H-indol-3-yl]-N-(2-methyl-chinolin-6-yl)-2-oxo-acetamid, reference compound] | 0.261 (≈ 0.575 µM) | 0.304 (≈ 0.67 µM) | 0.304 (≈ 0.67 µM) | 0.329 (≈ 0.725 µM) | 0.344 (≈ 0.758 µM) | 0.13 (≈ 0.286 µM) | 0.218 (≈ 0.48 µM) | 0.076 (≈ 0.167 µM) | 0.23 (≈ 0.507 µM) | > 3.16 | 0.199 (≈ 0.438 µM) | 0.133 (≈ 0.293 µM) | 0.266 (≈ 0.586 µM) | 0.165 (≈ 0.363 µM) | 0.183 (≈ 0.403 µM) | 0.233 (≈ 0.513 µM) | 0.174 (≈ 0.383 µM) | 0.212 (≈ 0.467 µM) |  |  | Hemmung der Tubulin-Polymerisation, EC50 (Rindertubulin; listed as 1 (V)): 1.16 µg/mL
Cc1ccc2cc(NC(=O)C(=O)c3cn(Cc4ccc(Cl)cc4)c4ccccc34)ccc2n1 [Verbindung 3, 6-{2-[1-(4-Chlor-benzyl)-1 H-indol-3-yl]-2-oxo-acetylamino}-2-methyl-chinolin Hydrochlorid, reference compound] |  |  |  |  |  |  |  |  |  |  |  |  |  |  |  |  |  |  | 0.142 |  | XTT Proliferationsassay, EC50 A549 (A549; A549, listed as 3 (V)): 0.405 µg/mL; XTT Proliferationsassay, EC50 DU145 (DU145; DU145, listed as 3 (V)): 0.426 µg/mL; XTT Proliferationsassay, EC50 A431 (A431; A431, listed as 3 (V)): 0.075 µg/mL; XTT Proliferationsassay, EC50 PC3 (PC3; PC3, listed as 3 (V)): 0.165 µg/mL; XTT Proliferationsassay, EC50 HT29 (HT29; HT29, listed as 3 (V)): 0.219 µg/mL; XTT Proliferationsassay, EC50 A172 (A172; A172, listed as 3 (V)): 0.171 µg/mL
O=C(Nc1ccc2[nH]ncc2c1)C(=O)c1cn(Cc2ccc(Cl)cc2)c2ccccc12 [Verbindung 6, 2-[1-(4-Chlor-benzyl)-1H-indol-3-yl]-N-(1H-indazol-5-yl)-2-oxo-acetamid] | > 3.16 | 0.323 (≈ 0.753 µM) | 0.241 (≈ 0.562 µM) | 0.506 (≈ 1.18 µM) | 0.233 (≈ 0.543 µM) | 0.175 (≈ 0.408 µM) | 0.093 (≈ 0.217 µM) | 0.07 (≈ 0.163 µM) | 0.148 (≈ 0.345 µM) | > 3.16 | 0.093 (≈ 0.217 µM) | 0.084 (≈ 0.196 µM) | 0.059 (≈ 0.138 µM) | 0.342 (≈ 0.797 µM) | 0.335 (≈ 0.781 µM) | 0.246 (≈ 0.574 µM) | 0.144 (≈ 0.336 µM) | 0.231 (≈ 0.539 µM) | 0.097 (≈ 0.226 µM) | 1.26 | 
O=C1c2c(O)ccc(O)c2C(=O)c2c(NCCNCCO)ccc(NCCNCCO)c21 [mitoxantron, reference compound] |  |  |  |  |  |  |  |  |  |  |  |  |  |  |  |  |  | 0.608 (≈ 1.37 µM) |  |  | 
CC[C@]1(O)C[C@H]2CN(CCc3c([nH]c4ccccc34)[C@@](C(=O)OC)(c3cc4c(cc3OC)N(C=O)[C@H]3[C@@](O)(C(=O)OC)[C@H](OC(C)=O)[C@]5(CC)C=CCN6CC[C@]43[C@@H]65)C2)C1 [vincristine, reference compound] |  |  |  |  |  |  |  |  |  |  |  |  |  |  |  |  |  |  |  | 0.35 | 
